Test results taken from US20040209778A1, “Lactone derivative, and plant growth regulator and rooting agent each containing the same as active ingredient” (priority 2001, published 2004).

Assays:
[1] = system: adventitious roots of Bupleurum falcatum L.; experiment: Rooting test using Bupleurum falcatum L. (2); format: cell-based; details: for Number of Lateral Roots: per unit length (2 cm) of planted root, average of 3 measurements
Procedure: In order to evaluate rooting activity, adventitious roots of Bupleurum falcatum L. were employed. The adventitious roots were obtained by growing the roots of aseptic seedlings by use of IBA. The developed roots were cultured at 23° C. in a B5 liquid medium containing 5 mg/L IBA (for 3 weeks) and in the corresponding B5 liquid medium with no IBA (for 6 weeks) in an alternate manner. The inoculation amount of the roots was 5 g/L, the incubation temperature was 23° C., and subculture was performed in the dark under shaking conditions of 100 rpm.
(§1) In the rooting test, adventitious roots cultured in IBA-free medium were employed. B5 medium (30-mL) was placed in a 100 mL flask, followed by planting of the roots of Bupleurum falcatum L. (0.2 g) under aseptic conditions. The present lactone derivative, prepared in 10,000 ppm, was added to the flask so as to attain the concentration of 4 ppm or 8 ppm. A sample containing a 4 ppm (final concentration) IBA solution and a sample containing a 8 ppm (final concentration) IBA solution were employed as positive controls, and a corresponding IBA-free sample was employed as a control. Respective samples were cultured under shaking at 100 rpm at 23° C. in the dark, and on day 24, the extent of rooting was checked. The roots were freeze-dried and the weight thereof was measured.
The general procedure of the above-described rooting test (1) was followed, except that there were employed, as positive controls, samples containing the novel auxin metabolite (Fb) disclosed in Japanese Patent Application Laid-Open (kokai) No. 10-77268, at 4 ppm and 8 ppm (both final concentration).
The number of lateral roots was determined by averaging 3 measurements of the number of the lateral roots appearing per unit length (2 cm) of the planted root.

[2] = system: adventitious roots of Bupleurum falcatum L.; experiment: Rooting test using Bupleurum falcatum L. (1); format: cell-based; details: for Weight of Freeze-dried Roots: day 24, 0.2 g roots planted
Procedure: as §1, with “In order to evaluate rooting activity, adventitious roots of Bupleurum falcatum L. were employed. The adventitious roots were obtained by growing the roots of aseptic seedlings by use of IBA. The developed roots were cultured at 23° C. in a B5 liquid medium containing 5 mg/L IBA (for 3 weeks) and in the corresponding B5 liquid medium with no IBA (for 6 weeks) in an alternate manner. The inoculation amount of the roots was 5 g/L, the incubation temperature was 23° C., and subculture was performed in the dark under shaking conditions of 100 rpm. In” for “In”

SMILES	rooting activity ([1]; 4 ppm and 8 ppm, compared with Fb as positive control)	Weight of Freeze-dried Roots ([1]; 4 ppm final concentration)	Number of Lateral Roots ([1]; 4 ppm final concentration)	Weight of Freeze-dried Roots ([1]; 8 ppm final concentration)	Number of Lateral Roots ([1]; 8 ppm final concentration)	rooting activity ([2]; 4 ppm and 8 ppm, compared with IBA as positive control)	Weight of Freeze-dried Roots ([2]; 4 ppm final concentration)	Weight of Freeze-dried Roots ([2]; 8 ppm final concentration)
O=C1CCC(c2csc3ccccc23)O1 (stereo not drawn) [Compound 2, 5-(1-Benzothiophen-3-yl)dihydro-2(3H)-furanone]	rooting activity stronger than Fb	0.31 g	30.0	0.45 g	43.3	rooting activity stronger than IBA	0.36 g	0.41 g
O=C1CCC(c2cc3ccccc3o2)O1 (stereo not drawn) [Compound 1, 5-(1-Benzofuran-2-yl)dihydro-2(3H)-furanone]							0.37 g	0.35 g
O=C(O)CCCc1c[nH]c2ccccc12 [IBA, indolebutyric acid, reference compound]							0.31 g	0.37 g
